MIC and MBC data for three compounds are collected here from publication PMC8092876, “A Leucyl-tRNA Synthetase Inhibitor with Broad-Spectrum Antimycobacterial Activity” (Antimicrobial Agents and Chemotherapy, 2021).

Assay [1] concerns M. abscessus Bamboo. The assay is described as follows: MIC assay in 96-well plate format. The following applies: Mycobacteroides abscessus. It is filed as cell-based, M. abscessus subsp. abscessus.
In the next assay the test system is M. avium 11. Put plainly: MIC assay in 96-well plate format. It is filed as cell-based, M. avium subsp. hominissuis.
The test system of assay [2] is M. abscessus subsp. abscessus ATCC 19977. The assay is described as follows: MIC assay in 96-well plate format. It counts as cell-based. The following applies: Mycobacteroides abscessus, ATCC19977; M. abscessus subsp. abscessus ATCC 19977, culture collection reference strain.
The subject of assay [3] is M. abscessus subsp. massiliense CCUG 48898T. Put plainly: MIC assay in 96-well plate format. It is filed as cell-based. The following applies: Mycobacteroides abscessus, culture collection reference strain.
In assay [4] the test system is M. abscessus subsp. bolletii CCUG 50184T. The assay is described as follows: MIC assay in 96-well plate format. It is filed as cell-based. To be noted: Mycobacteroides abscessus, culture collection reference strain.
In assay [5] the test system is M. abscessus subsp. abscessus M9. Put plainly: MIC assay in 96-well plate format. To be noted: Mycobacteroides abscessus; M. abscessus subsp. abscessus M9, clinical isolate. It counts as cell-based.
Assay [6] concerns M. abscessus subsp. abscessus M199. The assay is described as follows: MIC assay in 96-well plate format. It counts as cell-based. The following applies: Mycobacteroides abscessus; M. abscessus subsp. abscessus M199, clinical isolate.
For assay [7], the system named is M. abscessus subsp. abscessus M337. Put plainly: MIC assay in 96-well plate format. It is filed as cell-based. To be noted: Mycobacteroides abscessus; M. abscessus subsp. abscessus M337, clinical isolate.
In assay [8] the test system is M. abscessus subsp. abscessus M404. The assay is described as follows: MIC assay in 96-well plate format. It is filed as cell-based. To be noted: Mycobacteroides abscessus; M. abscessus subsp. abscessus M404, clinical isolate.
Assay [9] has as its system M. abscessus subsp. abscessus M422. The assay is described as follows: MIC assay in 96-well plate format. To be noted: Mycobacteroides abscessus; M. abscessus subsp. abscessus M422, clinical isolate. It is filed as cell-based.
For assay [10], the system named is M. abscessus subsp. bolletii M232. Put plainly: MIC assay in 96-well plate format. It is filed as cell-based. To be noted: Mycobacteroides abscessus; M. abscessus subsp. bolletii M232, clinical isolate.
In assay [11] the test system is M. abscessus subsp. bolletii M506. The assay is described as follows: MIC assay in 96-well plate format. It is filed as cell-based. The following applies: Mycobacteroides abscessus; M. abscessus subsp. bolletii M506, clinical isolate.
Assay [12] has as its system M. abscessus subsp. massiliense M111. Put plainly: MIC assay in 96-well plate format. It counts as cell-based. The following applies: Mycobacteroides abscessus; M. abscessus subsp. massiliense M111, clinical isolate.
For assay [13], the system named is M. abscessus subsp. abscessus K21. The assay is described as follows: MIC assay in 96-well plate format. It is filed as cell-based. To be noted: Mycobacteroides abscessus; M. abscessus subsp. abscessus K21, clinical isolate, infection model.
The test system of assay [14] is M. intracellulare ATCC 13950. Put plainly: MIC assay in 96-well plate format. It counts as cell-based. To be noted: Mycobacterium intracellulare, ATCC13950; M. intracellulare ATCC 13950, culture collection reference strain.
The test system of a further assay is M. chimaera CCUG 50989T. Put plainly: MIC assay in 96-well plate format. It is filed as cell-based. The following applies: CCUG50989T, culture collection reference strain.
For assay [15], the system named is M. abscessus Bamboo biofilms. The assay is described as follows: Biofilm growth inhibition assay (biofilm MIC and MBC). It counts as cell-based, M. abscessus subsp. abscessus. The following applies: Mycobacteroides abscessus. The method, then:
The biofilm growth inhibition assay was performed as previously described ([40]). Innovotech MBEC 96-well biofilm assay plates (Innovotech 19111, Edmonton, AB, Canada) were used, and the supplier’s manual was followed with minor modifications. Mid-log-phase M. abscessus Bamboo precultures (OD600 = 0.4 to 0.6) were spun down at 3200 × g for 10 min at 25°C and washed with 7H9 medium without Tween 80 (7H9nt). Bacteria were resuspended into 25 ml 7H9nt to an OD600 of 0.0125 (1.0 × 10^6 CFU/ml). […] The lids with the pegs were transferred to a new MBEC multititer plate containing 150 μl of fresh 7H9nt medium per well without bacteria (0 h time point). After that, the pegs with growing biofilm were transferred once a day to a new multititer plate containing fresh 7H9nt medium. To measure growth of the biofilm formed on the peg, the pegs were washed in 200 μl of 7H9nt medium before they were aseptically removed and placed in 1.7 ml microcentrifuge tubes (VWR 87003-294, Rador, PA, United States) containing 500 μl PBS/Tween 80. The microcentrifuge tubes were vigorously vortexed at 2,000 rpm for 90 s at 25°C to detach the bacteria from the pegs before samples were serially diluted and plated for the determination of CFU/peg. […] The average drug-free biofilm growth was calculated by subtracting the average 24 h CFU/peg value from the average 72 h CFU/peg value for the untreated control pegs. The biofilm MIC was defined as the lowest drug concentration that reduced the CFU/peg by 90% relative to that of the average drug-free biofilm growth.

For assay [16], the system named is M. abscessus Bamboo RM1 (LeuS A428P). The assay is described as follows: microbe, parasite or virus in culture. It counts as cell-based. The following applies: Mycobacteroides abscessus.
Assay [17] has as its system M. abscessus Bamboo RM2 (LeuS K502E). Put plainly: microbe, parasite or virus in culture. It is filed as cell-based. The following applies: Mycobacteroides abscessus.
The subject of assay [18] is M. abscessus Bamboo RM3 (LeuS V417M). The assay is described as follows: microbe, parasite or virus in culture. It counts as cell-based. To be noted: Mycobacteroides abscessus, RM3, batch 1, LeuS V417M.
For assay [19], the system named is M. abscessus Bamboo RM4 (LeuS T327R). Put plainly: microbe, parasite or virus in culture. The following applies: Mycobacteroides abscessus. It is filed as cell-based.
Assay [20] concerns M. abscessus Bamboo RM5 (LeuS V417M). Put plainly: microbe, parasite or virus in culture. It counts as cell-based. To be noted: Mycobacteroides abscessus, RM5, batch 2, LeuS V417M.
Assay [21] has as its system M. abscessus Bamboo. Put plainly: MIC and MBC determination in culture tubes (planktonic).
Description: M. abscessus Bamboo culture was grown to mid-log-phase (OD600 = 0.4 to 0.6) and diluted to OD600 = 0.1 (1 × 10^7 CFU/ml). Aliquots of 1.2 ml of the resulting bacteria suspension were transferred into 14 ml vented, round-bottom tubes (Thermo Fisher 150268, Rochester, NY, United States). A 10-point 2-fold dilution series of the compound was prepared, starting at 100 times the desired highest concentration. The compound concentration range tested was 100 to 0.195 μM. For each drug concentration tested, 12 μl of drug stock was added to two tubes and vortexed. Aliquots of 12 μl of DMSO were added to two tubes as the untreated controls (1% final DMSO concentration). From each tube, 200 μl was transferred to wells on a 96-well plate and the OD600 was measured using a Tecan Infinite M200 plate reader (day 0 reading). The tubes (1 ml final volume) were incubated on a tilted rack at 37°C on an orbital shaker at 220 rpm. On day 2, tubes were vortexed before transferring 200 μl onto a 96-well plate to measure the OD600 again (day 2 reading). To determine the MIC, day 0 and day 2 OD600 values were analyzed as previously described for MIC determination in 96-well plate format. To determine the MBC, CFU measurement was done for the OD600 = 0.1 bacteria suspension on day 0 and for each tube on day 2. Specifically, serial 10-fold dilutions were prepared in phosphate-buffered saline (Thermo Fisher 10010023) containing 0.025% Tween 80 (PBS/Tween 80) and plated on 7H10 agar. The MBC was defined as the lowest concentration of drug that reduced the CFU/ml value by 10-fold relative to the day 0 CFU/ml value.
The subject of assay [22] is M. tuberculosis H37Rv ATCC 27294. More on the design: method as in PMID 28953378. The following applies: 7H9; cited from earlier work.
Assay [23] shares this test system. Put plainly: MIC assay in 96-well plate format. It is filed as cell-based. The following applies: Mycobacterium tuberculosis, 168 h.

Values after ≈ are worked out from the molar mass of the structure shown. Values joined by “and” are separate entries in the source; they are usually repeats but may differ in a detail not shown here. Identical values can stand only once. Like-named read-outs stand apart in the source and are kept apart here. A value given as a limit tells only on which side of the number the result lay.

Turning to `CC[C@H]1OC(=O)[C@H](C)[C@@H](O[C@H]2C[C@@](C)(OC)[C@@H](O)[C@H](C)O2)[C@H](C)[C@@H](O[C@@H]2O[C@H](C)C[C@H](N(C)C)[C@H]2O)[C@](C)(OC)C[C@@H](C)C(=O)[C@H](C)[C@@H](O)[C@]1(C)O` [CLR, clarithromycin, reference compound], the MIC against M. abscessus Bamboo [1] is 0.31 µM (≈ 0.232 µg/mL); in the assay on M. abscessus Bamboo [1] (72 h, M. abscessus Bamboo, 7H9, 3 days, read-out: MIC), 0.23 µM (≈ 0.172 µg/mL); with M. abscessus Bamboo [1] (72 h, M. abscessus Bamboo, CAMH broth, 3 days, read-out: MIC), 0.07 µM (≈ 0.0524 µg/mL); in the assay with M. avium 11 (Mycobacterium avium, 96 h, M. avium 11, 7H9, 4 days, read-out: MIC) it was 0.3 µM (≈ 0.224 µg/mL); in assay [2], 0.9 µM (≈ 0.673 µg/mL); in assay [3], 0.19 µM (≈ 0.142 µg/mL). Besides, the MIC in [4] came out at 2.5 µM (≈ 1.87 µg/mL); in [5], 0.73 µM (≈ 0.546 µg/mL); in assay [6], 2.7 µM (≈ 2.02 µg/mL); in assay [7] it was 0.9 µM (≈ 0.673 µg/mL); in assay [8], 0.2 µM (≈ 0.15 µg/mL); in assay [9], 0.65 µM (≈ 0.486 µg/mL). Besides, the MIC in [10] was found to be 0.95 µM (≈ 0.711 µg/mL); in [11] it was 0.28 µM (≈ 0.209 µg/mL); in assay [12], 0.24 µM (≈ 0.18 µg/mL); in assay [13], 0.4 µM (≈ 0.299 µg/mL); in [14], 0.15 µM (≈ 0.112 µg/mL); in the assay on M. chimaera CCUG 50989T it was 0.19 µM (≈ 0.142 µg/mL). The MIC in assay [15] (48 h with drug, 90% reduction of CFU/peg growth) is 1.6 µM (≈ 1.2 µg/mL); in assay [16], 0.36 µM (≈ 0.269 µg/mL); in assay [17], 0.38 µM (≈ 0.284 µg/mL); in assay [18], 0.43 µM (≈ 0.322 µg/mL); in [19] it was 0.42 µM (≈ 0.314 µg/mL); in [20] it was 0.46 µM (≈ 0.344 µg/mL). Moreover, in the assay on M. abscessus Bamboo [21] (Mycobacteroides abscessus, 48 h), the MIC amounted to 0.28 µM (≈ 0.209 µg/mL). For the same compound, the MBC in [15] (10-fold CFU/peg reduction vs 24 h) was over 100 µM; against M. abscessus Bamboo [21] (Mycobacteroides abscessus) it was over 100 µM; against M. abscessus Bamboo [21] (planktonic M. abscessus Bamboo in culture tubes, day 2, 10-fold CFU/ml reduction vs day 0), over 100 µM.

For `NC[C@H]1OB(O)c2c(OCCO)ccc(Cl)c21` [GSK656, (S)-3-(aminomethyl)-4-chloro-7–(2-hydroxyethoxy)benzo[c][1,2]oxaborol-1(3H)-ol], the MIC was 0.27 µM (≈ 0.0695 µg/mL) with M. abscessus Bamboo [1] (72 h, read-out: MIC); over 50 µM in the assay with M. avium 11 (Mycobacterium avium, 11, 96 h); 0.08 μM and 0.08^d μM in assay [22].

With `CO[C@H]1/C=C/O[C@@]2(C)Oc3c(C)c(O)c4c(O)c(c(/C=N/N5CCN(C)CC5)c(O)c4c3C2=O)NC(=O)/C(C)=C\C=C\[C@H](C)[C@H](O)[C@@H](C)[C@@H](O)[C@@H](C)[C@H](OC(C)=O)[C@@H]1C` [rifampin, reference compound], the MIC in assay [23] turned out to be 0.66 µM (≈ 0.543 µg/mL).
